What all share (experiment): DTP human tumour cell line panel, 48 h
The test system of experiment [1] is A498.
For experiment [2], the system named is HCC 2998.
In experiment [3] the test system is HCT-15.
Experiment [4] has as its system Hs-578T.
In experiment [5] the test system is K562.
For experiment [6], the system named is MCF7.
Experiment [7] deals with MDA-MB-231.
Experiment [8] relates to MDA-N.
For experiment [9], the system named is NCI-H23.
Experiment [10] relates to OVCAR-3.
In experiment [11] the test system is OVCAR-5.
In experiment [12] the test system is SF-295.
The test system of experiment [13] is SF-539.
Experiment [14] deals with SK-MEL-2.
The test system of experiment [15] is SN12C.
Experiment [16] has as its system SW-620.
Experiment [17] has as its system T47D.
For experiment [18], the system named is TK-10.
Experiment [19] relates to UACC-257.
Experiment [20] deals with UACC-62.

The GI50 is the concentration that inhibits growth by half.

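Cultured in 96-well plates, cells were exposed to test compound for 48 hours across five concentrations. At the GI50, growth is halved.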 Calls of active or inactive are those of the source. Rule as the data show it: active = GI50 up to about 1.1 µM and inactive = higher.

Turning to `COc1cc(Nc2n[nH]c(NS(=O)(=O)c3cc(C)c(Cl)cc3S)n2)cc(OC)c1OC`, the GI50 was > 100 µM (inactive) in [1]; > 100 µM (inactive) in [2]; above 100 µM in experiment [3]; > 100 µM (inactive) in [4]; > 100 µM (inactive) in [5]; > 100 µM (inactive) in [6]. Moreover, the GI50 in [7], in experiment [8], in [9], in experiment [10], in experiment [11] and in experiment [12] was > 100 µM (inactive) each time. Moreover, the GI50 in [13], in experiment [14], in experiment [15], in experiment [16], in [17] and in [18] was > 100 µM (inactive) throughout. Besides, the GI50 in experiment [19] and in experiment [20] was > 100 µM (inactive) throughout.
On to `[N-]=[N+]=NC(c1ccccc1)(c1ccccc1)c1ccccc1`, for which the GI50 in [1] is 17.3 µM (inactive); in experiment [2] it was 15.8 µM (inactive); in [3], 18.1 µM; in experiment [4], 22.8 µM (inactive); in experiment [5], 14.8 µM (inactive); in experiment [6] it was 17.5 µM (inactive). Moreover, the GI50 is 16.5 µM (inactive) in experiment [7]; 16.4 µM (inactive) in [8]; 16.5 µM (inactive) in [9]; 20.4 µM (inactive) in experiment [10]; 16 µM (inactive) in experiment [11]; 12.1 µM (inactive) in experiment [12]. Also, the GI50 is 16.9 µM (inactive) in experiment [13]; 15.5 µM (inactive) in experiment [14]; 16.7 µM (inactive) in [15]; 17.7 µM (inactive) in experiment [16]; 16 µM (inactive) in experiment [17]; 17.5 µM (inactive) in experiment [18]. Further, the GI50 in experiment [19] is 16 µM (inactive); in [20], 15.4 µM (inactive).
For the molecule `COc1ccc2c(c1)CCCN1CCc3ccccc3C21` (stereo not drawn), the GI50 is 55.3 µM (inactive) in [1]; 69 µM (inactive) in experiment [2]; 30.5 µM in experiment [3]; 35.7 µM (inactive) in [4]; 45.7 µM (inactive) in [5]; 69.7 µM (inactive) in experiment [6]. The GI50 is 23.9 µM (inactive) in experiment [7]; 18.9 µM (inactive) in experiment [8]; 35.7 µM (inactive) in experiment [9]; 30.2 µM (inactive) in [10]; 70.3 µM (inactive) in experiment [11]; 24.7 µM (inactive) in experiment [12]. For the same molecule, the GI50 in [13] is 28.6 µM (inactive); in [14], 40.5 µM (inactive); in experiment [15], 23.3 µM (inactive); in experiment [16] it was 67.8 µM (inactive); in [17], 77.3 µM (inactive); in [18] it was 43.1 µM (inactive). In addition, the GI50 in experiment [19] was 47.8 µM (inactive); in experiment [20] it was 32.5 µM (inactive).
`CC(C)(C)c1ccc(C(C)(C)C)c(N2C(=O)[C@@H]3[C@@H]4C=C[C@@H](C4)[C@]3(C)C2=O)c1`: the GI50 in experiment [1] was 16.5 µM (inactive); in experiment [2], 15.5 µM (inactive); in experiment [3], 18.6 µM; in experiment [4] it was 24.2 µM (inactive); in experiment [5], 26.8 µM (inactive); in experiment [6] it was 22.4 µM (inactive). In addition, the GI50 is 28.4 µM (inactive) in experiment [7]; 14 µM (inactive) in [8]; 45.1 µM (inactive) in [9]; 13.9 µM (inactive) in experiment [10]; 86.5 µM (inactive) in experiment [11]; 27.7 µM (inactive) in experiment [12]. In addition, the GI50 in experiment [13] is 51.5 µM (inactive); in [14] it was 20.6 µM (inactive); in [15], 20.1 µM (inactive); in [16], 21.1 µM (inactive); in [17], 18.4 µM (inactive); in [18], 35 µM (inactive). For the same molecule, the values for the GI50 in experiment [19] and in experiment [20] were 23.1 µM (inactive) and 13.1 µM (inactive), respectively.
Regarding `CSC1=Nc2ccccc2-c2nc3ccccc3cc2C1`, the GI50 in [1] was > 100 µM (inactive); in experiment [2], > 100 µM (inactive); in [3] it was above 100 µM; in experiment [4], > 100 µM (inactive); in experiment [5], > 100 µM (inactive); in experiment [6] it was > 100 µM (inactive). The GI50 in [7], in experiment [8], in experiment [9], in experiment [10], in experiment [11] and in experiment [12] was > 100 µM (inactive) in each case. Besides, the GI50 in experiment [13] is > 100 µM (inactive); in experiment [14], > 100 µM (inactive); in experiment [15], > 100 µM (inactive); in experiment [17], 25.9 µM (inactive); in experiment [18], > 100 µM (inactive); in experiment [19], > 100 µM (inactive). For the same molecule, the GI50 in [20] is > 100 µM (inactive).
On to `NC1=Nc2cc(C(F)(F)F)ccc2Sc2nc3ccccc3n21`, for which the GI50 in experiment [1] was > 45.5 µM (inactive); in [2] it was > 94.8 µM (inactive); in [3] it was above 100 µM; in [4], 42.1 µM (inactive); in experiment [5] it was 5.75 µM (inactive); in experiment [6], > 76.9 µM (inactive). In addition, the GI50 was 38.1 µM (inactive) in [7]; 5.53 µM (inactive) in [8]; 31.3 µM (inactive) in experiment [9]; 33.1 µM (inactive) in experiment [10]; > 52.8 µM (inactive) in experiment [11]; > 57.9 µM (inactive) in experiment [12]. The GI50 in [13] was > 46.5 µM (inactive); in [14], 55.8 µM (inactive); in experiment [15], 57.5 µM (inactive); in experiment [16], > 100 µM (inactive); in [17], 26.6 µM (inactive); in experiment [18], > 67 µM (inactive). The values for the GI50 in experiment [19] and in experiment [20] were 41.2 µM (inactive) and 57.4 µM (inactive), respectively.
On to `Cc1ccccc1C(=O)N/N=C/c1ccc(Sc2nccn2C)c([N+](=O)[O-])c1`, for which the GI50 in experiment [1] was > 100 µM (inactive); in experiment [2], 45.3 µM (inactive); in experiment [3] it was 66.8 µM; in [4] it was 85.9 µM (inactive); in experiment [5], 42.4 µM (inactive); in experiment [6], > 100 µM (inactive). In addition, the GI50 in experiment [7] is 72.3 µM (inactive); in [8], 32.7 µM (inactive); in experiment [9] it was > 100 µM (inactive); in experiment [10] it was > 100 µM (inactive); in experiment [11] it was > 100 µM (inactive); in experiment [12], 58.5 µM (inactive). Besides, the GI50 in experiment [13] was > 100 µM (inactive); in experiment [14] it was 68.7 µM (inactive); in [15], > 100 µM (inactive); in [16], > 100 µM (inactive); in experiment [17], 45.3 µM (inactive); in [18], > 100 µM (inactive). In addition, the GI50 in experiment [19] is > 100 µM (inactive); in [20], 71.9 µM (inactive).
For the molecule `COc1ccc2nc3n(c2c1)CCc1cc(OC)c(OC)cc1-3`, the GI50 in [1] was 68.7 µM (inactive); in experiment [2], 26 µM (inactive); in [3], 33.5 µM; in experiment [4] it was 85.7 µM (inactive); in experiment [5], 37.9 µM (inactive); in [6], 42.5 µM (inactive). Further, the GI50 is > 100 µM (inactive) in [7]; 44 µM (inactive) in experiment [8]; 40.1 µM (inactive) in [9]; 46.7 µM (inactive) in experiment [10]; > 100 µM (inactive) in experiment [11]; 50.9 µM (inactive) in [12]. In addition, the GI50 in experiment [13] is 88.9 µM (inactive); in [14], > 100 µM (inactive); in experiment [15], 63.1 µM (inactive); in [16], 71.3 µM (inactive); in [17] it was 34.6 µM (inactive); in [18] it was 86.3 µM (inactive). The GI50 in experiment [19] is 55 µM (inactive); in [20], 32.3 µM (inactive).
On to `O=C(Cn1c2ccc(Br)cc2c2nc3ccccc3nc21)NNC(=O)NC1CCCCC1`, for which the GI50 in experiment [1] is > 100 µM (inactive); in experiment [2], > 100 µM (inactive); in experiment [4], 24.4 µM (inactive); in experiment [5] it was 47.1 µM (inactive); in [6] it was 49 µM (inactive); in experiment [7], 30.1 µM (inactive). Further, the GI50 is 44 µM (inactive) in experiment [8]; 61.4 µM (inactive) in [9]; 63.5 µM (inactive) in experiment [10]; 52.8 µM (inactive) in experiment [11]; 34.3 µM (inactive) in experiment [12]; > 100 µM (inactive) in experiment [13]. The GI50 in [14] was > 100 µM (inactive); in [15], 52.8 µM (inactive); in [16], 33 µM (inactive); in experiment [17], 33 µM (inactive); in experiment [18], 42.8 µM (inactive); in [19] it was 98.9 µM (inactive). For the same molecule, the GI50 in [20] is > 100 µM (inactive).
As for `O=C1c2ccccc2C2CNC1(O)c1ccccc12` (stereo not drawn), the GI50 was > 100 µM (inactive) in experiment [1]; > 100 µM (inactive) in experiment [2]; above 100 µM in experiment [3]; > 100 µM (inactive) in experiment [4]; > 100 µM (inactive) in experiment [5]; > 100 µM (inactive) in experiment [6]. The GI50 in experiment [7], in [8], in experiment [9], in experiment [10], in experiment [11] and in experiment [12] was > 100 µM (inactive) throughout. Further, the GI50 in experiment [13], in experiment [14], in experiment [15], in experiment [16], in [17] and in [18] was > 100 µM (inactive) throughout. The GI50 in experiment [19] and in [20] was > 100 µM (inactive) throughout.
